From ChEMBL document CHEMBL3244027, “Syntheses, analgetic activity, and physical dependence capacity of 5-phenyl-6,7-benzomorphan derivatives” (J Med Chem, 1979)
Active and inactive are the calls of the source. The rule behind the calls is not given here.

Tests used:
Mus musculus [1] = experiment: Analgetic activity against CF-1 mouse assessed as increase in reaction time at 320 mg/kg, po by heat stimulus induced tail flick response assay; format: functional, organism-based; parameters: dose 320 mg/kg
Mus musculus [2] = experiment: Analgetic activity in sc dosed CF1S mouse assessed as writhing by phenylquinone writhing test; format: functional
Mus musculus [3] = experiment: Analgetic activity in po dosed CF1S mouse assessed as writhing by phenylquinone writhing test; format: functional; conditions: Mus musculus, CF1S, po; read-out: ED50
[4] = Mus musculus, CF1S, sc, read-out: ED50

Question: Which results are given for `CCCCCCCCCCN1CCC2(c3ccccc3)c3cc(O)ccc3CC1C2C.Cl` (configuration not stated)?
Answer: Activity (Mus musculus [1]): inactive; ED50 (Mus musculus [2]; [4]): 70 mg/kg; ED50 (Mus musculus [3]): > 100 mg/kg

Question: With `C=CCN1CCC2(c3ccccc3)CC1Cc1ccc(O)cc12` (stereo in doubt; 146) as the compound, how does the Activity (Mus musculus [1]) read?
Answer: The Activity was “inactive”.

Question: With `Cl.Oc1ccc2c(c1)C1(c3ccccc3)CCN(CCc3ccccc3)C(C2)C1` (configuration not stated) as the compound, how does the ED50 (Mus musculus [2]; [4]) read?
Answer: The ED50 was 7.4 mg/kg.

Question: `CC1C2Cc3ccc(O)cc3C1(c1ccccc1)CCN2CCO` (racemic) was tested. Which ED50 (Mus musculus [2]; [4]) did it give?
Answer: Its ED50 is 44 mg/kg.

Question: What about the ED50 (Mus musculus [3]) of the same compound?
Answer: Its ED50 is > 100 mg/kg.

Question: `CS(=O)(=O)O.c1ccc(CCN2CCC3(c4ccccc4)CC2Cc2ccccc23)cc1` (configuration not stated) was tested. Which ED50 (Mus musculus [2]; [4]) did it give?
Answer: The ED50 was > 100 mg/kg.

Question: How did the ED50 (Mus musculus [2]; [4]) turn out when `Cl.Oc1ccc2c(c1)C1(c3ccccc3)CCN(CC3CC3)C(C2)C1` (configuration not stated) was run?
Answer: The ED50 was 15 mg/kg.

Question: `C[C@@H]1C2Cc3ccc(O)cc3C1(c1ccccc1)CCN2C` (some centres not stated) was tested. Which ED50 (Mus musculus [2]; [4]) did it give?
Answer: The ED50 was 0.5 mg/kg.

Question: Which ED50 (Mus musculus [3]) does the source give for `CCCCC(=O)Oc1ccc2c(c1)C1(c3ccccc3)CCN(CC3CCC3)C(C2)C1.Cl` (racemic) here?
Answer: The ED50 was > 100 mg/kg.

Question: Which results are given for `CC1C2Cc3ccc(O)cc3C1(c1ccccc1)CCN2C(=O)C1CC1` (configuration not stated)?
Answer: Activity (Mus musculus [1]): inactive; ED50 (Mus musculus [2]; [4]): > 100 mg/kg

Question: `C/C(Cl)=C/CN1CCC2(c3ccccc3)CC1Cc1ccc(O)cc12` (racemic) was tested. Which ED50 (Mus musculus [2]; [4]) did it give?
Answer: Its ED50 is > 100 mg/kg.

Question: With `Oc1ccc2c(c1)C1(c3ccccc3)CCN(CCCCc3ccccc3)C(C2)C1` (racemic) as the compound, how does the Activity (Mus musculus [1]) read?
Answer: The Activity was “inactive”.

Question: What about the ED50 (Mus musculus [3]) of the same compound?
Answer: The ED50 was > 100 mg/kg.

Question: Which Activity (Mus musculus [1]) does the source give for `CC1C2Cc3ccc(O)cc3C1(c1ccccc1)CCN2CCN1CCOCC1` (configuration not stated) here?
Answer: The Activity was “inactive”.

Question: And the ED50 (Mus musculus [2]; [4])?
Answer: The ED50 was > 100 mg/kg.

Question: And the ED50 (Mus musculus [3])?
Answer: The ED50 was > 100 mg/kg.

Question: With `CC1C2Cc3ccc(O)cc3C1(c1ccccc1)CCN2` (stereo in doubt; 112) as the compound, how does the Activity (Mus musculus [1]) read?
Answer: Its Activity is “inactive”.

Question: How did the ED50 (Mus musculus [2]; [4]) turn out when `Oc1ccc2c(c1)C1(c3ccccc3)CCNC(C2)C1` (racemic) was run?
Answer: Its ED50 is > 100 mg/kg.

Question: `CC1C2Cc3ccc(OC(=O)c4ccccc4)cc3C1(c1ccccc1)CCN2C` (configuration not stated) was tested. Which ED50 (Mus musculus [2]; [4]) did it give?
Answer: Its ED50 is 0.5 mg/kg.

Question: How did the ED50 (Mus musculus [2]; [4]) turn out when `C=CCN1CCC2(c3ccccc3)c3cc(O)ccc3CC1C2C.CCCO.Cl` (configuration not stated) was run?
Answer: Its ED50 is > 100 mg/kg.

Question: What does the source list for `Br.Clc1ccc(C23CCN(CCc4ccccc4)C(Cc4ccccc42)C3)cc1` (racemic)?
Answer: Activity (Mus musculus [1]): inactive; ED50 (Mus musculus [2]; [4]): > 100 mg/kg

Question: `CCCCCN1CCC2(c3ccccc3)CC1Cc1ccc(O)cc12.Cl` (racemic) was tested. Which Activity (Mus musculus [1]) did it give?
Answer: Its Activity is “inactive”.

Question: And the ED50 (Mus musculus [2]; [4])?
Answer: Its ED50 is 23 mg/kg.

Question: Which ED50 (Mus musculus [2]; [4]) does the source give for `CN1CCC2(c3ccccc3)CC1Cc1ccc(O)cc12.Cl` (stereo in doubt; 43) here?
Answer: Its ED50 is 5.5 mg/kg.

Question: `CN1CCC2(c3ccc(O)cc3)CC1Cc1ccc(O)cc12` (racemic) was tested. Which Activity (Mus musculus [1]) did it give?
Answer: Its Activity is “inactive”.

Question: How did the ED50 (Mus musculus [2]; [4]) turn out when `CC1C2Cc3ccc(O)cc3C1(c1ccccc1)CCN2C` (configuration not stated) was run?
Answer: Its ED50 is 4.2 mg/kg.

Question: `COc1ccc2c(c1)C1(c3ccccc3)CCN(CC3CCC3)C(C2)C1.Cl.O` (racemic) was tested. Which ED50 (Mus musculus [3]) did it give?
Answer: Its ED50 is > 100 mg/kg.

Question: For `C[C@@H]1C2Cc3ccc(OS(C)(=O)=O)cc3C1(c1ccccc1)CCN2C` (some centres not stated), which ED50 (Mus musculus [2]; [4]) is on record?
Answer: Its ED50 is 5.3 mg/kg.

Question: How did the ED50 (Mus musculus [2]; [4]) turn out when `Br.CC1C2Cc3ccc(O)cc3C1(c1ccccc1)CCN2CC(=O)c1ccccc1` (configuration not stated) was run?
Answer: Its ED50 is > 100 mg/kg.

Question: For `Cl.O=C(CCCN1CCC2(c3ccccc3)CC1Cc1ccccc12)c1ccc(F)cc1` (racemic), which ED50 (Mus musculus [3]) is on record?
Answer: The ED50 was > 150 mg/kg.

Question: For `CC1C2Cc3ccc(O)cc3C1(c1ccccc1)CCN2CCC(c1ccccc1)c1ccccc1` (stereo in doubt; 166), which Activity (Mus musculus [1]) is on record?
Answer: Its Activity is “inactive”.

Question: For `CCCN1CCC2(c3ccccc3)c3cc(O)ccc3CC1C2C.Cl` (stereo in doubt; 173), which ED50 (Mus musculus [2]) is on record?
Answer: The ED50 was >100 mg/kg.

Question: With `C=CCN1CCC2(c3ccccc3)CC1Cc1ccc(O)cc12` (stereo in doubt; 143) as the compound, how does the ED50 (Mus musculus [2]) read?
Answer: Its ED50 is >80 mg/kg.

Question: Which ED50 (Mus musculus [2]; [4]) does the source give for `CC1C2Cc3ccc(O)cc3C1(c1ccccc1)CCN2C1CCCC1.Cl` (configuration not stated) here?
Answer: The ED50 was 120 mg/kg.

Question: `C#CCN1CCC2(c3ccccc3)CC1Cc1ccc(OC(=O)c3ccccc3)cc12` (racemic) was tested. Which ED50 (Mus musculus [2]; [4]) did it give?
Answer: The ED50 was > 100 mg/kg.

Question: Which ED50 (Mus musculus [3]) does the source give for `CC1C2Cc3ccc(O)cc3C1(c1ccccc1)CCN2CC1CCC1.CS(=O)(=O)O` (racemic) here?
Answer: Its ED50 is > 100 mg/kg.

Question: Which results are given for `CC1C2Cc3ccc(O)cc3C1(c1ccccc1)CCN2CCc1cccs1.Cl.O` (configuration not stated)?
Answer: ED50 (Mus musculus [2]; [4]): > 100 mg/kg; ED50 (Mus musculus [3]): > 100 mg/kg

Question: How did the ED50 (Mus musculus [3]) turn out when `CCCCCN1CCC2(c3ccccc3)c3cc(O)ccc3CC1C2C` (configuration not stated) was run?
Answer: The ED50 was > 100 mg/kg.

Question: For `Cc1ccc(S(=O)(=O)Oc2ccc3c(c2)C2(c4ccccc4)CCN(C)C(C3)C2C)cc1.Cl` (configuration not stated), which ED50 (Mus musculus [2]; [4]) is on record?
Answer: Its ED50 is > 100 mg/kg.

Question: For `CC1C2Cc3ccc(OC(=O)c4ccc([N+](=O)[O-])cc4)cc3C1(c1ccccc1)CCN2C` (configuration not stated), which ED50 (Mus musculus [2]; [4]) is on record?
Answer: Its ED50 is 0.6 mg/kg.

Question: `CC(C)=CCN1CCC2(c3ccccc3)c3cc(OC(=O)c4c(Cl)cccc4Cl)ccc3CC1C2C` (configuration not stated) was tested. Which ED50 (Mus musculus [2]; [4]) did it give?
Answer: Its ED50 is > 100 mg/kg.

Question: `Oc1ccc2c(c1)C1(c3ccccc3)CCNC(C2)C1` (configuration not stated) was tested. Which Activity (Mus musculus [1]) did it give?
Answer: Its Activity is “inactive”.

Question: How did the Activity (Mus musculus [1]) turn out when `Oc1ccc(C23CCNC(Cc4ccc(O)cc42)C3)cc1` (racemic) was run?
Answer: Its Activity is “inactive”.

Question: For `CC(C)O.Oc1ccc2c(c1)C1(c3ccccc3)CCNC(C2)C1` (configuration not stated), which ED50 (Mus musculus [2]; [4]) is on record?
Answer: The ED50 was > 100 mg/kg.

Question: With `Oc1ccc2c(c1)C1(c3ccccc3)CCN(C/C=C/c3ccccc3)C(C2)C1` (racemic) as the compound, how does the Activity (Mus musculus [1]) read?
Answer: The Activity was “Active”.

Question: With `CCCN1CCC2(c3ccccc3)c3cc(O)ccc3CC1C2C.Cl` (stereo in doubt; 163) as the compound, how does the ED50 (Mus musculus [2]) read?
Answer: The ED50 was 14 mg/kg.

Question: What about the ED50 (Mus musculus [3]) of the same compound?
Answer: Its ED50 is > 100 mg/kg.
